Measurements from a melting point compilation (Tetko et al.; mined from patent text by program, amines drawn as free bases though some values may be those of a salt).

Structure (SMILES) | melting point
COc1cc2c(cc1Nc1ncc(Cl)c(N[C@H]3[C@@H](C(N)=O)[C@@H]4C=C[C@H]3C4)n1)CCN(Cc1ncco1)CC2 | 110 to 119 °C
Cc1ccc(C)c2[nH]c(N)nc12 | 164 to 170 °C
CN(C)CC(=O)N1CCN2C(=O)N(c3cc(Cl)cc(Cl)c3)C(=O)C2(Cc2ccc(Br)cc2)C1 (stereo not given) | 73.5 °C
Cc1nnc(-c2ccc3occ(-c4ccc(CS(C)(=O)=O)cc4)c3c2)o1 | 250 to 251 °C
COC(=O)/C=C/c1ccc2c(c1)nc(N)c1ncn(CC(C)(C)O)c12 | > 250 °C
Nc1sc(-c2cccs2)c(CN(C2CCCCC2)C2CCCCC2)c1C(=O)c1ccc(Cl)cc1 | 197 to 199 °C
C=CCON=C(C)c1cccc(Oc2nc(OC)cc(OC)n2)c1C(=O)OC | 76 to 78 °C
COCC(=O)OC(n1cc(C#N)c(-c2cccc(Cl)c2Cl)c1)C(Cl)(Cl)Cl (stereo not given) | 88 to 90 °C
c1ccc(Oc2ncc(-c3cnc(-c4ccccc4)[nH]3)cn2)cc1 | 254 °C
CCCC(O)C1(c2onc(-c3ccc(O)cc3)c2-c2ccccc2)CC1 (stereo not given) | 139 to 140 °C
Cc1nn(CC(F)(F)COC(=O)CN)c(-c2ccc(F)cc2)c1-c1ccc2c(c1)NC(=O)CO2 | 142 to 146 °C
CC(=O)OCC(CCn1cnc2nc(N)ncc21)COC(C)=O | 137 to 139 °C
CC(C)(C)C(=O)C(CSc1ccc(Cl)cc1)n1cncn1 (stereo not given) | 67 °C
CC(C)OC(=O)c1n[nH]c2c(=O)[nH]c3cc(Cl)ccc3c(=O)c12 | 291 °C
COCCOc1ccc(-c2cncc(C#N)c2Nc2ccc3[nH]ccc3c2C)cc1OC | 208 to 210 °C
CS(=O)c1cc(CCC(=O)OC(C)(C)C)cc(-c2nc(=O)c3ccccc3s2)n1 (stereo not given) | 220 °C
CCCc1c2c(c([N+](=O)[O-])c3c(=O)cc(C(=O)OCC)oc13)CCCC2 | 140 to 142 °C
CCCCCCCCCCCCCCCCSC(=O)Nc1ccc(NC(=O)NS(=O)(=O)c2ccc3ccccc3c2)cc1 | 190 °C
COC(=N)CCSCc1csc(N=C(N)N)n1 | 126 °C
COC(=O)c1cccc(OCCCNC(=O)C[C@H]2O[C@H](c3cccc(OC)c3OC)c3cc(Cl)ccc3N(CC(C)(C)CO)C2=O)c1 | 99 to 100 °C
N#Cc1ccc(C2CC(=O)N(CC3CC3)Cc3cncn32)cc1 (stereo not given) | 178 to 180 °C
CC1(C)Oc2ccc(C#N)cc2[C@@H](NC=O)[C@@H]1OC=O (relative stereo) | 171 to 172 °C
CNC(=O)COc1cc(OC)ccc1O | 136 to 138 °C
C=CCOC(=O)NC(C)(C)c1ccc(-c2nc(Nc3ccc(CCn4ccnc4)cc3)ncc2Cl)cc1F | 88 °C

Structure (SMILES) | melting point
CC1=C(C(=O)Nc2cccc(C(=O)OC(C)C)c2)SCCO1 | 92 to 94 °C
O=C(O)Cc1ccc(N2Cc3ccccc3C2=O)cc1 | 210 to 211 °C
c1cn(CCc2nc(-c3ccc4c(c3)OCO4)c3cc4c(cc3n2)OCO4)cn1 | 160 to 163 °C
O=c1[nH]c2cc(Br)ccc2c(=O)n1Cc1ccc(Br)cc1F | > 280 °C
CC(=O)c1cc(Cl)c(N)c(I)c1F | 117 to 119 °C
CCOC(=O)Nc1nc(C)c(-c2nc3ccccc3c(=O)n2-c2ccccc2)s1 | 248 to 251 °C
CN(CCCCc1ccc(NC(=O)c2cccc3c(=O)c4ccccc4[nH]c23)cc1)Cc1ccc(F)cc1 | 151 °C
CCc1cc2[nH]c(=O)ccc2c(CC)n1 | 168 to 169 °C
Nc1c(-c2ccc(-c3ccc(F)cc3F)cc2)nc2ccccc2c1C(=O)O | 244 to 247 °C
CCCCC1(COC(=O)C(C)(C)C)C(=O)N(c2ccccc2)N(c2ccccc2)C1=O | 116 to 117 °C
CC(C)(C)C(CO)NC(=O)C(CC(=O)O)N1C=CN(c2ccc(-c3ccccc3)cc2)C1 (mixture of isomers) | 145 to 150 °C
O=C1c2ccccc2C(=O)N1CCc1c[nH]c2ccc(CNS(=O)(=O)c3ccccc3)cc12 | 225 to 226 °C
Cn1c(CC(C)(C)C(=O)O)c(C(=O)c2ccc(Cl)cc2)c2ccc(OCc3ccc4ccccc4n3)cc21 | 203 to 205 °C
Cc1cc(C)cc(CON2C(=O)COc3ccc(C=C4SC(=S)NC4=O)cc32)c1 | > 300 °C
COc1cc2c(Nc3ccc(Sc4nccn4C)c(Cl)c3)c(C#N)cnc2cc1/C=C/CCN(C)C | 215 to 225 °C
CCC(C(=O)c1ccc(Cl)cc1)n1ncn(-c2ccc(N3CCN(c4cc(C)cc(C)n4)CC3)nc2)c1=O (stereo not given) | 113 °C
CC(=O)OC1CCC2(C)C(CCC3C2CCC2(C)C(=O)CCC32O)C1 (stereo not given) | 182 to 184 °C
CC(C)C(NC(=O)OCc1ccccc1)P(O)O (stereo not given) | 108 to 111 °C
COc1cc(OC)c(-c2cc3ccccc3n2C)cc1C=CC(=O)c1ccc(S(=O)(=O)NCCN2CCOCC2)cc1 | 167 to 168 °C
Cc1oc(-c2ccccc2)nc1COc1ccc(Cn2cc(C=O)c(-c3cccs3)n2)cc1 | 136 to 137 °C
COC(=O)CCC(=O)c1ccc2c(c1)CC(CCNC(C)=O)C2 (stereo not given) | 96 to 97 °C
CCOC(=O)c1[nH]c2cc(Cl)cc(Cl)c2c1NCCC(=O)c1ccccc1 | 195 to 197 °C
CCCC(CCNC(=O)C(C#N)=Cc1cc(O)c(O)c(OC)c1)NC(=O)C(C#N)=Cc1cc(O)c(O)c(OC)c1 (stereo not given) | 243 °C
CC(C)(C)NC(=O)Nc1nc2nc(NC3CCOCC3)ncc2cc1Oc1ccc(F)cc1F | 195 to 201 °C

Structure (SMILES) | melting point
CCCc1cccnc1N | 25 to 27 °C
COC(OC)C(C)NC1=Nc2ccc(Cl)cc2C(c2ccccc2Cl)=NC1 (stereo not given) | 153 to 155 °C
COCCOC(=O)Nc1cccc(C)c1CCl | 100 to 102 °C
CCOC(=O)C(C)(C)n1c(=O)[nH]c2ccccc2c1=O | 133 to 134 °C
COc1cc(OCC(=O)O)c(C)cc1SCc1sc(-c2ccc(C(F)(F)F)cc2)nc1C | 211 to 213 °C
CCOC(=O)c1[nH]cc2c1C1C=CC2CC1 (stereo not given) | 129 to 130 °C
O=c1c2c([nH]c3nc(N4CCCCC4)nn13)CCCS2 | > 350 °C
COc1ccc(OCC(O)CNCCNc2c(C)c(=O)n(C)c(=O)n2C)cc1OC (stereo not given) | 103 to 104 °C
C#Cc1cccc(N2C(=O)C=CC2=O)c1 | 129 to 131 °C
Cn1cc(C(F)(F)F)c(C(=O)O)n1 | 174 to 175 °C
COc1ccccc1CN[C@H]1CCCN(CCCc2ccccc2)[C@H]1c1ccccc1 (relative stereo) | 120 to 125 °C
COCNC(=O)C1CN(C(c2ccccc2)c2ccccc2)C1 | 103 to 106 °C
CN(C)c1ccc(NC(=O)N(C[C@H]2CCC[C@H](CN(C(=O)Nc3ccc(N(C)C)cc3)C3CCCC3)C2)C2CCCC2)cc1 (relative stereo) | 142 to 147 °C
CC(C)c1nc(CO)n(Cc2ccccc2)c1Sc1cc(Cl)cc(Cl)c1 | 121 to 124 °C
O=c1oc2c(O)c(O)ccc2c2cc(O)c(O)cc12 | > 250 °C
O=C1CCC(N2Cc3cc(CNC(=O)Nc4cccc(Oc5ccccc5)c4)ccc3C2=O)C(=O)N1 (stereo not given) | 224 to 226 °C
CNC(=S)NC(c1ccccc1)c1ccccc1 | 152 to 154 °C
COc1ccc(S(=O)(=O)N2Cc3ccccc3N(C(=O)COc3ccccc3)CC2C(=O)O)cc1 (stereo not given) | 188 to 191 °C
O=C(NC1N=C(c2ccccc2F)c2ccccc2NC1=O)c1ccsc1 (racemic) | 238 to 239 °C
O=C(NCC1CN(c2ccc(N3CCOCC3=O)cc2)C(=O)O1)c1ccc(Cl)s1 (stereo not given) | 227 °C
CC(C)(C)C(=O)OCCCCCCOc1ccc(Nc2ccccc2)cc1 | 64 to 65 °C
O=C1CCC2=C1C(c1ccc(F)c(Br)c1)C1=C(CCS1)N2 (stereo not given) | > 260 °C
CC1(C)CCC(C)(C)c2cc(-c3cc(-c4ccc(C(=O)O)cc4)ccc3OCCCO)ccc21 | 317 °C
COC(=O)c1ccc(Cn2c(=O)c3cc(C(=O)NCc4ccc(OC)cc4)sc3n(C)c2=O)cc1OC | 201 to 203 °C

Structure (SMILES) | melting point
CC(C)(C#N)Cc1cccc(-c2cccc(CC(C)(C)C#N)c2)c1 | 96 to 103 °C
CON=CCN1C(=O)C(NC(=O)c2cc3ccccc3[nH]2)N=C(c2ccccc2)c2ccccc21 (racemic) | 169 to 174 °C
CC(C)c1ccc2nc[nH]c(=O)c2c1 | 147 °C
COc1ccc(-n2nc(OC(C)C)cc2-c2ccc(OCCNS(C)(=O)=O)cc2)cc1 | 168 °C
CC(C)(C)OC(=O)Nc1ccc(-c2cccc3ccccc23)cc1[N+](=O)[O-] | 60 to 66 °C
CC(=O)N(C(C)=O)c1csc(Br)n1 | 63 to 65 °C
CC(=NO)c1ccncc1 | 154 to 155 °C
C=CCC1CC(=O)N1C(C(=O)OCOC(=O)C(C)(C)C)=P(c1ccccc1)(c1ccccc1)c1ccccc1 (stereo not given) | 140 to 142 °C
Cn1c2ccc(F)cc2c(=O)n2nc(-c3nnn[nH]3)cc12 | 350 to 360 °C
O=[N+]([O-])c1cnccc1NCc1c(F)cccc1F | 148 to 149 °C
Cc1ccc(C(=O)C#CCO)cc1 | 74 °C
O=C1N=C(N2CCOCC2)SC1=Cc1cc(-c2ccc(O)c(C34CC5CC(CC(C5)C3)C4)c2)ccc1O | 325 to 330 °C
COc1ccc(OC)c(CC2=C(C)C(=O)C3C=CC=CC3C2=O)c1 (stereo not given) | 140 to 142 °C
COc1ccc(Br)cc1C1C2CC3CC(C2)CC1C3 (stereo not given) | 140 to 141 °C
N#Cc1ccc(OCCCCCI)cc1 | 51 to 54 °C
O=C(O)c1ccc(OCC2CN(c3ccccc3)C(=S)O2)cc1 (stereo not given) | 214 to 215 °C
COCc1nc2c3c(ccn2c1C)C(=O)[C@H](O)[C@@H](c1ccccc1)N3 | 168 to 173 °C
N#CC(C#N)=C1N(CCCN2CCCCC2)CCN1CCCN1CCCCC1 | 99 to 101 °C
N#Cc1nn(-c2c(Cl)cc(C(F)(F)F)cc2Cl)cc1C1CC(=O)C1(Cl)Cl (stereo not given) | 118 to 120 °C
O=S(=O)(Cc1ccccc1)c1ncc(Br)cn1 | 142 to 143 °C
COc1cc2c(cc1OC)[C@@H]1CN(C)CC[C@@H]1N=C2c1cccc(C(F)(F)F)c1 (relative stereo) | 215 to 217 °C
O=C(c1ccoc1)N1CCC(O)(C#Cc2cccc(Cl)c2)CC1 | 93 to 94 °C
Oc1ccc2c(c1)COc1c-2cc2ccc(O)cc2c1-c1ccco1 | 158 to 163 °C
